According to ChEMBL document CHEMBL1944600, “Synthesis of chromeno[3,4-b]indoles as Lamellarin D analogues: a novel DYRK1A inhibitor class” (Eur J Med Chem, 2012):

Columns and labels:
[1] = biological target: Dual specificity tyrosine-phosphorylation-regulated kinase 1A (Rattus norvegicus, UniProt Q63470); assay: Inhibition of GST-tagged rat recombinant DYRK1A expressed in Escherichia coli using myelin basic protein as substrate and [gamma-33P]ATP after 30 mins by scintillation counting
[2] = biological target: Glycogen synthase kinase-3 (Sus scrofa, UniProt B2LUN4+I6LNT8); assay: Inhibition of porcine brain GSK3alpha/beta using GS-1 as substrate
[3] = biological target: Cyclin-dependent kinase 5/CDK5 activator 1 (Homo sapiens, UniProt Q00535); assay: Inhibition of human recombinant CDK5/p25 using [gamma-33P]ATP after 30 mins by scintillation counting; assay type: protein-complex assay
CCRF-CEM = assay: Cytotoxicity against human CEM cells; assay type: functional, cell-based
[4] = biological target: T1, DNA topoisomerase 1 (Homo sapiens) (UniProt P11387); assay: Human topoisomerase 1-mediated nicking of supercoiled plasmid pUC19 DNA at 100 uM by agarose gel electrophoresis
T1 sequence (whole entry): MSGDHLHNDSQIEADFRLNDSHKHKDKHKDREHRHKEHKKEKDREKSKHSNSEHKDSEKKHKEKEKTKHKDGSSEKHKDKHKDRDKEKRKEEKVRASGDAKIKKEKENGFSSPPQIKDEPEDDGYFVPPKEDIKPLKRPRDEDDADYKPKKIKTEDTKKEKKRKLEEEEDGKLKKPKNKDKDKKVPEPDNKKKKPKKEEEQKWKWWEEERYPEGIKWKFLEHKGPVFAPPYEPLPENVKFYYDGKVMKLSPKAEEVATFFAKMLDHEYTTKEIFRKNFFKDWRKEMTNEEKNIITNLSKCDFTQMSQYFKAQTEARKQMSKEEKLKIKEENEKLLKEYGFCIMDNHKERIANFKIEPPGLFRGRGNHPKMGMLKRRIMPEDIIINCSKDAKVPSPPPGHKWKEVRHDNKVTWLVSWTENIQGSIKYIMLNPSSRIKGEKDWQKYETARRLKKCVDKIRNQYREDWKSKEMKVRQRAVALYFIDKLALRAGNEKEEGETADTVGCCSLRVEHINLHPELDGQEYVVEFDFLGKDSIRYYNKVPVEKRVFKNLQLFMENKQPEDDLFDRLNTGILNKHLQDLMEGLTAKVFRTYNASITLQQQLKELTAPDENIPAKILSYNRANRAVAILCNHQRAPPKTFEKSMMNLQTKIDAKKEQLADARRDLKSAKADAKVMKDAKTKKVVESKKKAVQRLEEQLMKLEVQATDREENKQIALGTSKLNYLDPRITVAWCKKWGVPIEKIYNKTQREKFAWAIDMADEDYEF

[5] = biological target: T1, DNA topoisomerase 1 (Homo sapiens); assay: Human topoisomerase 1-mediated nicking of supercoiled plasmid pUC19 DNA at 20 uM by agarose gel electrophoresis

Cyclin-dependent kinase 5/CDK5 activator 1, sequence (Q00535 whole entry): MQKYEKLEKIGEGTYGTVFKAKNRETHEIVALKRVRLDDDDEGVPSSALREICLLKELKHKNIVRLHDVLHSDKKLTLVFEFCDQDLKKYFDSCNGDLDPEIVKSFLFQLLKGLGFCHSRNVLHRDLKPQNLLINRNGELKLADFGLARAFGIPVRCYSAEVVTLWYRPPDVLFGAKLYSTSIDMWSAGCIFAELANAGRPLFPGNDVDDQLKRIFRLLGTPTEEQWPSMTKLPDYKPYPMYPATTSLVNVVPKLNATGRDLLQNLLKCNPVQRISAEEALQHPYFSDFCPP
Cyclin-dependent kinase 5/CDK5 activator 1, sequence (Q15078 whole entry, further chain): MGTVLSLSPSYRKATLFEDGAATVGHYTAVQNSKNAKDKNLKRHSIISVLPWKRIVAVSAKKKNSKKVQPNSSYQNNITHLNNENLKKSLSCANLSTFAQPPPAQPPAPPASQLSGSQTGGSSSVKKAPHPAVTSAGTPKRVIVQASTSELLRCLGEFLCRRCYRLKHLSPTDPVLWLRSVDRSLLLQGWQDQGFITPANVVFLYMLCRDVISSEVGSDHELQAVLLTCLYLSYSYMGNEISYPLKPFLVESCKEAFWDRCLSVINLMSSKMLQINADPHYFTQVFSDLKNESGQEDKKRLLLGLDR

Structure (SMILES) | IC50 [1] [µM] | IC50 [2] | IC50 [3] [µM] | IC50 (CCRF-CEM) [µM] | % nicked DNA [4] [%] | % nicked DNA [5] [%]
O=c1oc2ccc(O)cc2c2c1[nH]c1cccc(-c3ccc(O)cc3)c12 | ≥ 10 | > 10 µM | ≥ 10 |  |  | 
O=c1oc2cc(O)c(O)cc2c2c1[nH]c1ccc(O)cc12 | 1.5 | 1.3 µM | > 10 |  |  | 
CC[C@@]1(O)C(=O)OCc2c1cc1n(c2=O)Cc2cc3ccccc3nc2-1 [CAMPTOTHECIN] |  |  |  | 0.005 |  | 
COc1cc(-c2c3c4cc(OC)c(O)cc4oc(=O)c3n3ccc4cc(O)c(OC)cc4c23)ccc1O [LAMELLARIN D] |  |  |  | 15 | 21 | 22
O=c1oc2cc(O)ccc2c2c1[nH]c1cc(O)ccc12 | 3.2 | 10 µM | 10 |  |  | 
CCCOc1cccc2[nH]c3c(=O)oc4ccc(O)cc4c3c12 | 1.7 | 8.1 µM | > 10 |  |  | 
COc1ccc(-c2ccc3c(c2)[nH]c2c(=O)oc4ccc(O)cc4c23)cc1 | > 10 | > 10 µM | > 10 |  |  | 
O=c1oc2ccc(O)cc2c2c1[nH]c1cc3c(cc12)OCO3 | 1.8 | > 10 µM | 16 |  |  | 
O=c1oc2ccccc2c2c1[nH]c1cccc(-c3ccc(O)cc3)c12 | ≥ 10 | > 10 µM | ≥ 10 |  |  | 

Second part, led by results:

IC50 [1] [µM] | IC50 [2] | IC50 [3] [µM] | Structure (SMILES) | IC50 (CCRF-CEM) [µM] | % nicked DNA [4] [%] | % nicked DNA [5] [%]
0.3 | 0.42 µM | 4.2 | O=c1oc2cc(O)ccc2c2c1[nH]c1ccc(O)cc12 | 38.5 | 21 | 16
0.66 | 5.9 µM | > 10 | Cc1cccc2[nH]c3c(=O)oc4ccc(O)cc4c3c12 |  |  | 
0.5 | 0.44 µM | 4.7 | O=c1oc2cc(O)ccc2c2c1[nH]c1ccccc12 |  |  | 
0.074 | 0.38 µM | 2.7 | O=c1oc2ccc(O)cc2c2c1[nH]c1ccccc12 |  |  | 
0.21 | 2.5 µM | 8.4 | O=c1oc2ccc(O)cc2c2c1[nH]c1ccc(F)cc12 |  |  | 
0.067 | 0.31 µM | 0.72 | O=c1oc2ccc(O)cc2c2c1[nH]c1ccc(O)cc12 |  |  | 
0.35 | 3.3 µM | ≥ 10 | COc1cccc2[nH]c3c(=O)oc4ccc(O)cc4c3c12 |  |  | 
2.1 | >= 10 uM | > 10 | O=c1oc2ccc(O)cc2c2c1[nH]c1cccc(C(F)(F)F)c12 |  |  | 
3.3 | > 10 µM | > 10 | Cc1ccc2c(c1)[nH]c1c(=O)oc3ccc(O)cc3c12 |  |  | 
4.3 | > 10 µM | > 10 | O=c1oc2ccc(O)cc2c2c1[nH]c1cc(O)ccc12 |  |  | 
≥ 10 | >= 10 uM | ≥ 10 | O=c1oc2ccc(O)cc2c2c1[nH]c1ccc(C(F)(F)F)cc12 |  |  | 
> 10 | > 10 µM | > 10 | O=c1oc2ccccc2c2c1[nH]c1ccccc12 |  |  | 
> 10 | > 10 µM | > 10 | COc1cccc2oc(=O)c3[nH]c4ccccc4c3c12 |  |  | 
